For data set [1] the following is noted: Liquid; for mass density: 298.15 K, 101.33 kPa; for vapor or sublimation pressure: Ebulliometric method (Recirculating still).
Data set [2] in a line: refractive index (Na D-line) (dimensionless). The following applies: 293.15 K; 101.33 kPa; Liquid; Standard Abbe refractometry.

Numbers after ± are expanded uncertainties.

Turning to `CC(C)CC(C)(C)C` [2,2,4-trimethylpentane], the mass density (as a rule, the mass of a sample divided by its volume) in data set [1] was determined as 687.8 ± 1.3 kg/m3. For the same compound, the vapor or sublimation pressure (usually the equilibrium pressure above the liquid or solid) is on record as 15.85 ± 0.11 kPa in data set [1] (318.13 K), 23.68 ± 0.14 kPa in data set [1] (328.15 K) and 34.4 ± 0.19 kPa in data set [1] (338.15 K). For the same compound, in data set [2], the refractive index – broadly, the speed of light in vacuum divided by its phase velocity in the sample – is 1.38894 ± 0.00045.
Consider `CCC(C)(C)OC` [2-methoxy-2-methylbutane], for which the mass density in data set [1] was 765.85 ± 0.66 kg/m3. The “vapor or sublimation pressure” value in data set [1] (318.13 K) was 23.96 ± 0.14 kPa; in data set [1] (328.15 K) it was 35.45 ± 0.19 kPa; in data set [1] (328.2 K) it was 35.45 ± 0.19 kPa; in data set [1] (338.15 K), 51.05 ± 0.25 kPa; in data set [1] (338.28 K) it was 51.05 ± 0.25 kPa. The refractive index in data set [2] is 1.38614 ± 0.00041.
Take `CC(C)(C)O` [2-methylpropan-2-ol]: the mass density in data set [1] is on record as 780.44 ± 0.64 kg/m3. Moreover, the “vapor or sublimation pressure” value in data set [1] (318.13 K) is recorded as 17.95 ± 0.12 kPa; in data set [1] (328.2 K), 30.35 ± 0.17 kPa; in data set [1] (338.28 K), 48.93 ± 0.24 kPa.

Source of the values: the NIST ThermoML archive (doi:10.1021/je901026b).
